Reference: patent US8859615B2, “Compounds, compositions and methods for reducing toxicity and treating or preventing diseases” (priority 2008, dated 2014)
Several values for one entry are separate records, joined by “and”; a condition that tells them apart may be missing. Identical values can stand only once.

System: human colon carcinoma HCT-116 xenografts
Experiment: Compound D with Iso-Oxazole-Fludelone or Isodehydelone in nude mice bearing HCT-116 xenografts
Conditions: mouse, in vivo

## iso-oxazole-fludelone (17-isooxazole-fludelone) [Iso-Flu]
  complete remission (CR): 6/6 and 1/6
